Data taken from US20220211731A1, “COMPOSITION FOR PROMOTING GLP-1 SECRETION” (SUNTORY HOLDINGS LIMITED, priority 2019, published 2022).

What was measured:
H716 = assay: GLP-1 secretion amount of sweeteners, Experimental Example 1; type: cell-based, human; settings: H716, stock solution added, quantitation after further 24 hours, PBS as negative control, FIG. 1
Experimental: RebA, RebB, RebM, RebN, RebD, RebC, MogV, and stevioside were examined for their GLP-1 secretion-promoting effects. Specifically, the amount of GLP-1 secretion was measured by the following procedures.
Each test substance B, C, D, E, F, G, I, or J vas dissolved in PBS (Thermo Fisher Scientific Inc.) (Cat. No. 14190250) to obtain a stock solution. The concentration of the stock solution is shown below:
B (RebA); 5 mM, C (RebB); 1M, D (RebM); 2.5 mM, E (RebN); 1M, F (RebD); 2.5 mM, G (RebC); 2.5 mM, I (MogV); 1M, J(stevioside);1M
H716 (ATCC) (Cat. No. ATCC® CCL-251) was cultured in RPMI 1640 (10% FBS ((Thermo Fisher Scientific Inc.) (Cat. No. 10439024), 1 mM Sodium Pyruvate) in an incubator at 37° C., 5% CO2.
The preculture was performed for 2 weeks, and the cells were sufficiently recovered, and then cell stocks were prepared.
Cells were seeded in 96-well plates at 2×10^5 cells/90 μL (high) per well (N=4). At this time, the content of FBS in the medium was lowered to 0.5% to suppress cell proliferation.
After 24 hours, the sample at the highest concentration (i.e., stock solution) was added by 10 each.
After further 24 hours, quantitation of GLP-1 was performed. Specific procedures were followed the user guide of Human GLP-1 (7-36 amide) immunoassay kit (Cat. No. AL359) (Lot number 2361115) provided by PerkinElmer, Inc. PBS was used as a negative control (no sample).

[1] = Measurement of surface tension by plate method; type: physicochemical; settings: compared with other glycosides
Experimental: Surface tension Q is measured by a plate method. For example, a glycoside sweetener, which is a test substance, is added in an amount to have Brix 10 on a sucrose basis to prepare an aqueous solution. The surface tension of the prepared aqueous solution is measured by a plate method using an automatic surface tension meter (CBVP-Z type, manufactured by Kyowa Interface Science Co., Ltd).
Aqueous solutions containing RebA, RebD, and RebM (commercially available products) each were prepared. The contents of RebA, RebD, and RebM were aligned to Brix 10 on a sucrose basis. That is, the contents of RebA, RebD, and RebM were 333 ppm, 351 ppm, and 351 ppm, respectively. The surface tension of the obtained aqueous solution was measured by a plate method using an automatic surface tension meter (CBVP-Z type, manufactured by Kyowa Interface Science Co., Ltd). Water was used as a control and tested in the same manner.

[2] = Distribution ratio between pure water and toluene; type: physicochemical; settings: organic layer and aqueous layer could not be separated
Experimental: After each about 100 mL of pure water and toluene was charged into a separatory funnel, 30 mg of each steviol glycoside was added. The separatory funnel was sealed to avoid liquid leakage, and stirred with shaking using a shaker for about 30 minutes, and then allowed to stand. When the liquid layer was separated into two layers, the distribution ratio was measured by LCMS after sampling was performed from each layer.

[3] = Dissolution of sample in 1% DMSO-containing PBS; type: physicochemical; settings: final concentration of 1.5 mM (#24)
Experimental: To 20 mg of RebC, 21 μL of DMSO (manufactured by FUJIFILM Wako Pure Chemical Corporation, model number: 037-24053) was added. The mixture was then stirred by vortex and allowed to stand for several hours to obtain a stock solution having a RebC concentration of 1,000 mM. The obtained stock solution and PBS were used to prepare a 10 mM solution.
The 10 mM solution was diluted as needed with 1% DMSO-containing PBS to obtain Sample G-1 mM to Sample G-10 mM. The concentrations of RebC are described in Table 1.
For Sample B processed, final concentrations of 0.025 mM (#11) and 0.05 mM (#12) were added to the concentrations to be tested (0.1 to 2.5 mM).

surfactant effect (surface tension) [1]	emulsification phenomenon when measuring the distribution ratio [2]	dissolution of sample [3]	Compound	amount of GLP-1 secretion compared with no sample (H716)
			C=C1C[C@@]23CC[C@H]4[C@@](C)(CCC[C@@]4(C)C(=O)O[C@@H]4O[C@H](CO)[C@@H](O)[C@H](O)[C@H]4O)[C@@H]2CC[C@]1(O[C@@H]1O[C@H](CO)[C@@H](O)[C@H](O)[C@H]1O[C@@H]1O[C@H](CO)[C@@H](O)[C@H](O)[C@H]1O)C3 [stevioside, Stevioside]	significantly larger amounts of GLP-1 secretion than no sample
higher than that of other glycosides	had an emulsification phenomenon		C=C1C[C@@]23CC[C@H]4[C@@](C)(CCC[C@@]4(C)C(=O)O[C@@H]4O[C@H](CO)[C@@H](O)[C@H](O)[C@H]4O)[C@@H]2CC[C@]1(O[C@@H]1O[C@H](CO)[C@@H](O)[C@H](O[C@@H]2O[C@H](CO)[C@@H](O)[C@H](O)[C@H]2O)[C@H]1O[C@@H]1O[C@H](CO)[C@@H](O)[C@H](O)[C@H]1O)C3 [RebA, Rebaudioside A]	significantly larger amounts of GLP-1 secretion than no sample
			rebaudioside B [RebB]	significantly larger amounts of GLP-1 secretion than no sample
		not able to be dissolved	rebaudioside C [RebC]	significantly larger amounts of GLP-1 secretion than no sample
			C[C@H](CC[C@@H](O[C@@H]1O[C@H](CO[C@@H]2O[C@H](CO)[C@@H](O)[C@H](O)[C@H]2O)[C@@H](O)[C@H](O)[C@H]1O[C@@H]1O[C@H](CO)[C@@H](O)[C@H](O)[C@H]1O)C(C)(C)O)[C@H]1CC[C@@]2(C)[C@@H]3CC=C4[C@@H](CC[C@H](O[C@@H]5O[C@H](CO[C@@H]6O[C@H](CO)[C@@H](O)[C@H](O)[C@H]6O)[C@@H](O)[C@H](O)[C@H]5O)C4(C)C)[C@]3(C)[C@H](O)C[C@]12C [MogV, mogroside V]	significantly larger amounts of GLP-1 secretion than no sample
